In patent US20250136593A1, “DEGRADATION AGENT AND USE THEREOF” (HITGEN INC., priority 2021, published 2025):
pIC50: −log10 of the molar value.

Assays:
[1] = biological target: ternary complex between BCL-XL and CRBN-DDB1 (Homo sapiens, UniProt Q07817+Q96SW2); experiment: Compound-induced formation of ternary complex between BCL-XL and CRBN-DDB1 by AlphaLISA; format: biochemical; design: key: the number of + indicates the intensity of AlphaLISA peak signal; ++: the number of + indicates the intensity of AlphaLISA peak signal; +++: the number of + indicates the intensity of AlphaLISA peak signal; ++++: the number of + indicates the intensity of AlphaLISA peak signal; +++++: the number of + indicates the intensity of AlphaLISA peak signal; conditions: peak signal; 60 nM Strep-BCL-XL and 60 nM His-CRBN/DDB1
Protocol: Experimental Example 4, Detection of Compound-Induced Formation of Ternary Complex Between BCL-XL and CRBN-DDB1 by AlphaLISA Method
Na2HPO4(Sigma), NaH2PO4(Sigma), sodium chloride (Sigma), Tween-20 (Sigma), AlphaLISA®Nikel Chelate Acceptor beads (PerkinElmer), Strep-Tactin® Alpha Donor beads (PerkinElmer), Assay plate (Corning), Strep-BCl-XL (HitGen), His-CRBN/DDB1 (HitGen).
DMSO was used to dissolve the dry powder of the test compound to obtain a 10.00 mM solution. The instrument ECHO was used to perform gradient dilution of the compound, which was then added to a 384-well reaction plate (Corning, Cat #3824), so that the final concentration of DMSO in the entire reaction system (10.0 μL) was less than 1%, and the same amount of DMSO was added and used as a control.
Strep-BCl-XL and His-CRBN/DDB1 proteins were dissolved in buffer (10 mM NaH2PO4, 40 mM Na2HPO4, 150 mM sodium chloride, 0.03% Tween20, pH=7.4) to obtain a protein mixture of 60 nM Strep-BCL-XL and 60 nM His-CRBN/DDB1, the protein mixture (5ul/well) was added to the 384-well plate in which the compound had been added, and incubated at room temperature for 30 minutes, then 5 μl of a detection mixture with 50 μg/ml AlphaLISA®Nikel Chelate Acceptor beads and 50 μg/ml Strep-Tactin® Alpha Donor beads was added, and incubated at room temperature for 2 hours; and then a microplate reader was used to detect AlphaLISA signal.
Fifth order polynomial or Sixth order polynomial in Polynomial of Graphpad 6.0 was used for data fitting.

MOLT-4 cells = experiment: Inhibitory activity on MOLT4 cell proliferation by Cell Titer-Glo method; format: cell-based; conditions: Homo sapiens, 72 hours incubation, read-out: IC50 concentration for inhibiting MOLT-4 cells
Protocol: Experimental Example 5, Evaluation Experiment of Inhibitory Activity of Compound on MOLT4 Cell Proliferation by Cell Titer-Glo Method
RPMI medium modified (Hyclone), FBS (Corning), Dimethyl Sulfoxide, P/S, CellTiter-Gbo Luminescent Cell Viability Assay (Promega), MOLT-4 cell (ATCC).
MOLT-4 cells were cultured in monolayer in vitro in an incubator containing 5% CO2 air at 37° C. The culture medium was RPMI 1640 with 10% FBS and 1% P/S. 15 μL of MOLT4 cells, containing 5×10^4 cells per ml, was inoculated to a 384-well plate (Corning, 3707), 750 cells/well, and incubated at 37° C. and 5% CO2 for 30 minutes. Then the compound that had been diluted in advance was added, with a total of 9 concentration points, and 2 parallel repetitions for each concentration point. The cell growing group without adding the compound was used as a negative control (maximum signal control), and the culture medium group was used as a blank control (minimum signal control). At the same time, it was ensured that the final DMSO content in each reaction well was 0.1%. The compound and the cells were incubated in a cell culture incubator at 37° C., 5% CO2 for 3 days (72 hours).
The 384-well plate was taken out from the cell culture incubator and allowed to stand at room temperature, equilibrated for 20 to 30 minutes, and then 25 μl of Cell Titer-Glo detection reagent was added to each reaction well, lysed on a shaker for 2 minutes, incubated for 10 minutes, and BMG PHERAStar (Luminescence) was used for reading.
The inhibition rate was calculated based on the luminescence signals: the average value of the negative control (maximum signal control) and the blank control (minimum signal control) was first calculated, then the inhibition rates of the compound at different concentrations for the cells were calculated as follows:
The IC50 of the compound to inhibit cell activity was calculated by fitting with GraphPad Prism 6 using log(inhibitor) vs. response−Variable slope mode. The fitting equation was: Y=Bottom+(Top−Bottom)/(1+10^((LogIC50−X)*HillSlope)), wherein Y represented the inhibition rate and X represented the known compound concentration after Log.

Chain of ternary complex between BCL-XL and CRBN-DDB1 (Q07817 whole entry): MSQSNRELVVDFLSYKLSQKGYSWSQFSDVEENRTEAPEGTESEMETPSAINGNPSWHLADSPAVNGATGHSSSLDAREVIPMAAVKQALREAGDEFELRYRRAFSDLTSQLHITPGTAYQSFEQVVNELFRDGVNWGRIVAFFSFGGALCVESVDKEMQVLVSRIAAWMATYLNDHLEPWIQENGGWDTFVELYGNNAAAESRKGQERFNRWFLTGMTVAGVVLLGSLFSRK
Chain of ternary complex between BCL-XL and CRBN-DDB1 (Q96SW2 whole entry): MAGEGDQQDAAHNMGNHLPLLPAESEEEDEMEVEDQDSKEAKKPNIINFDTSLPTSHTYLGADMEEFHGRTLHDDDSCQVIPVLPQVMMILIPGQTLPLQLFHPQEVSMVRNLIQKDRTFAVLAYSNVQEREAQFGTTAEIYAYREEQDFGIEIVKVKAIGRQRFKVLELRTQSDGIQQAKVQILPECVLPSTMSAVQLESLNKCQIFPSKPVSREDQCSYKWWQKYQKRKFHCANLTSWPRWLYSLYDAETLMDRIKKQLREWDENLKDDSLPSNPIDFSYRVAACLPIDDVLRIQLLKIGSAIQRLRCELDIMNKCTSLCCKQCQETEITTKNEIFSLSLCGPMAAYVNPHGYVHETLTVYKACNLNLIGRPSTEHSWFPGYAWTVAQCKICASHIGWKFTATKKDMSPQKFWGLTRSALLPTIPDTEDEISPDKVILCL
Chain of ternary complex between BCL-XL and CRBN-DDB1 (Q16531 whole entry partner): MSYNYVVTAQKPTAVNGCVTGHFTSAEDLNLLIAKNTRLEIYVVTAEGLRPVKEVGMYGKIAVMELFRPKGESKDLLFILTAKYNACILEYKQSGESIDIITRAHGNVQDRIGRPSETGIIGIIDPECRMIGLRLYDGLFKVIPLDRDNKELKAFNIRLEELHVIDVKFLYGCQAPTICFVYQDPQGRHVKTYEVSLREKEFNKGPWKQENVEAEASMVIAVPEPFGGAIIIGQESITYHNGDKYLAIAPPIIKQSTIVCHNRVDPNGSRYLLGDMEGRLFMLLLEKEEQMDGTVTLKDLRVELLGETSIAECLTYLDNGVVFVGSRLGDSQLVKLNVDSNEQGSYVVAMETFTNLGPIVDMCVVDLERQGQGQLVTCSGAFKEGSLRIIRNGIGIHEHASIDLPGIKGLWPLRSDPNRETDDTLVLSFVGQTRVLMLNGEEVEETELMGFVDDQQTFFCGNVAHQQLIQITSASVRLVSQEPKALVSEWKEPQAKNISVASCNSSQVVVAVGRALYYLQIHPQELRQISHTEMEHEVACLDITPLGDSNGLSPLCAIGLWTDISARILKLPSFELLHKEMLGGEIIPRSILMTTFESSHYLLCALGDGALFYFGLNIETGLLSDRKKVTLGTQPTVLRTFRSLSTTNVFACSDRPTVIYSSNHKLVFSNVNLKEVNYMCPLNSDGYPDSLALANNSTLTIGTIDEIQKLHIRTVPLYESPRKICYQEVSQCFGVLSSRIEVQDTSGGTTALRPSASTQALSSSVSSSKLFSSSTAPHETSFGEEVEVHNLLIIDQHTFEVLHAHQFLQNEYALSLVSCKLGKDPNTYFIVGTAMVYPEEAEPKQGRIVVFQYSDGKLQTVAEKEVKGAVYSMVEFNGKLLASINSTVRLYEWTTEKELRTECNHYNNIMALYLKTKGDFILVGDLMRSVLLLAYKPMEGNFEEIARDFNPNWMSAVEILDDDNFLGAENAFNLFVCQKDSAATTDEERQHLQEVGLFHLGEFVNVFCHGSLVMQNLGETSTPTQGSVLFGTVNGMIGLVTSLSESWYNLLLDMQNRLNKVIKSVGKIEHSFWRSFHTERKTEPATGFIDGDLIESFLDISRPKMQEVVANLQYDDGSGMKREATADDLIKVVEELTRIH

Row | Compound | AlphaLISA signal (PROTAC ternary complex signal intensity) [1] | pIC50 (MOLT-4 cells)
1 | CNc1nc(-c2cnc3ccccc3c2)nc2c1CCN(C(=O)c1ccc(COc3ccc(C#CCN4CCN(C(=O)CCCn5cc(COCCOCCNc6cccc7c6C(=O)N(C6CCC(=O)NC6=O)C7=O)nn5)CC4)cc3)cc1)C2 (stereo not drawn) [A] | ++ | 4.00 to 4.30
2 | C=Cc1cc(-c2nc3c(c(NC)n2)CCN(C(=O)c2ccc(COc4ccc(C#CCN(C)CCCCOc5cccc6c5C(=O)N(C5CCC(=O)NC5=O)C6=O)cc4)cc2)C3)cnc1C=C (stereo not drawn) [Compound B2] | + | 
3 | C/C=c1/cc(-c2nc3c(c(NC)n2)CCN(C(=O)c2ccc(COc4ccc(C#CCN(C)CCCCCOc5cccc6c5C(=O)N(C5CCC(=O)NC5=O)C6=O)cc4)cc2)C3)cn/c1=C/C (stereo not drawn) [Compound B3] | + | 
4 | C=Cc1cc(-c2nc3c(c(NC)n2)CCN(C(=O)c2ccc(COc4ccc(C#CCN5CCN(CCCCNc6cccc7c6C(=O)N(C6CCC(=O)NC6=O)C7=O)CC5)cc4)cc2)C3)cnc1C=C (stereo not drawn) [Compound C2-2] | ++++ | 4.00 to 4.30
5 | C=Cc1cc(-c2nc3c(c(NC)n2)CCN(C(=O)c2ccc(COc4ccc(C#CCN5CCN(CCCCCNc6cccc7c6C(=O)N(C6CCC(=O)NC6=O)C7=O)CC5)cc4)cc2)C3)cnc1C=C (stereo not drawn) [Compound C2-3] | +++++ | 3.70 to 4.00
6 | C=Cc1cc(-c2nc3c(c(NC)n2)CCN(C(=O)c2ccc(COc4ccc(C#CCN5CCN(CCCCCCNc6cccc7c6C(=O)N(C6CCC(=O)NC6=O)C7=O)CC5)cc4)cc2)C3)cnc1C=C (stereo not drawn) [Compound C2-4] | ++++ | 
7 | C=Cc1cc(-c2nc3c(c(NC)n2)CCN(C(=O)c2ccc(COc4ccc(C#CCN5CCN(CCCCCCCCNc6cccc7c6C(=O)N(C6CCC(=O)NC6=O)C7=O)CC5)cc4)cc2)C3)cnc1C=C (stereo not drawn) [Compound C2-5] | +++ | 
8 | C=Cc1cc(-c2ncc3c(n2)CN(C(=O)c2ccc(/C=C/c4ccc(C#CCN5CCN(CCCCCOc6cccc7c6C(=O)N(C6CCC(=O)NC6=O)C7=O)CC5)cc4)cc2)CC3)cnc1C=C (stereo not drawn) [Compound C3-2] | + | 3.70 to 4.00
9 | C=Cc1cc(-c2ncc3c(n2)CN(C(=O)c2ccc(/C=C/c4ccc(C#CCN5CCN(CCCCCCOc6cccc7c6C(=O)N(C6CCC(=O)NC6=O)C7=O)CC5)cc4)cc2)CC3)cnc1C=C (stereo not drawn) [Compound C3-3] | + | 
10 | C/C=c1/cc(-c2ncc3c(n2)CN(C(=O)c2ccc(/C=C/c4ccc(C#CCN5CCN(CCCCCOc6cccc7c6CN(C6CCC(=O)NC6=O)C7=O)CC5)cc4)cc2)CC3)cn/c1=C/C (stereo not drawn) [Compound C3-4] | + | 3.70 to 4.00
11 | C/C=c1/cc(-c2nc3c(c(NC)n2)CCN(C(=O)c2ccc(/C=C/c4ccc(C#CCN5CCN(CCCCCOc6cccc7c6CN(C6CCC(=O)NC6=O)C7=O)CC5)cc4)cc2)C3)cn/c1=C/C (stereo not drawn) [Compound C3-5] | ++ | 3.70 to 4.00
12 | C=Cc1cc(-c2ncc3c(n2)CN(C(=O)c2ccc(COc4ccc(C#CCN5CCN(CCCCCOc6cccc7c6C(=O)N(C6CCC(=O)NC6=O)C7=O)CC5)cc4)cn2)CC3)cnc1C=C (stereo not drawn) [Compound C3-10] | ++ | 
13 | C=Cc1cc(-c2ncc3c(n2)CN(C(=O)c2ccc(COc4ccc(C#CCN5CCN(CCCCCOc6cccc7c6C(=O)N(C6CCC(=O)NC6=O)C7=O)CC5)nc4)cc2)CC3)cnc1C=C (stereo not drawn) [Compound C3-13] | + | 
14 | C=Cc1cc(-c2nc3c(c(NC)n2)CCN(C(=O)c2ccc(COc4ccc(C#CCN5CCN(CCCOc6cccc7c6C(=O)N(C6CCC(=O)NC6=O)C7=O)CC5)cc4)cc2)C3)cnc1C=C (stereo not drawn) [Compound C3-14] | + | 
15 | C=Cc1cc(-c2nc3c(c(NC)n2)CCN(C(=O)c2ccc(COc4ccc(C#CCN5CCN(CCCCOc6cccc7c6C(=O)N(C6CCC(=O)NC6=O)C7=O)CC5)cc4)cc2)C3)cnc1C=C (stereo not drawn) [Compound C3-15] | + | 
16 | C=Cc1cc(-c2nc3c(c(NC)n2)CCN(C(=O)c2ccc(COc4ccc(C#CCN5CCN(CCCCCCCCOc6cccc7c6C(=O)N(C6CCC(=O)NC6=O)C7=O)CC5)cc4)cc2)C3)cnc1C=C (stereo not drawn) [Compound C3-18] | +++ | 
17 | CNc1nc(-c2cnc3ccccc3c2)nc2c1CCN(C(=O)c1ccc(/C=C/c3ccc(C#CCN4CCN(CCCCC(=O)N[C@H](C(=O)N5C[C@H](O)C[C@H]5C(=O)NCc5ccc(-c6scnc6C)cc5)C(C)(C)C)CC4)cc3)cc1)C2 [Compound G1-4] | + | 
18 | CNc1nc(-c2cnc3ccccc3c2)nc2c1CCN(C(=O)c1ccc(/C=C/c3ccc(C#CCN4CCN(C(=O)CCC(=O)N[C@H](C(=O)N5C[C@H](O)C[C@H]5C(=O)N[C@@H](C)c5ccc(-c6scnc6C)cc5)C(C)(C)C)CC4)cc3)cc1)C2 [Compound G2-2] | + | 
19 | CNc1nc(-c2cnc3ccccc3c2)nc2c1CCN(C(=O)c1ccc(/C=C/c3ccc(C#CCN4CCN(C(=O)CCCC(=O)N[C@H](C(=O)N5C[C@H](O)C[C@H]5C(=O)NCc5ccc(-c6scnc6C)cc5)C(C)(C)C)CC4)cc3)cc1)C2 [Compound G2-3] | + | 
20 | CNc1nc(-c2cnc3ccccc3c2)nc2c1CCN(C(=O)c1ccc(/C=C/c3ccc(C#CCN4CCN(C(=O)CCCCC(=O)N[C@H](C(=O)N5C[C@H](O)C[C@H]5C(=O)NCc5ccc(-c6scnc6C)cc5)C(C)(C)C)CC4)cc3)cc1)C2 [Compound G2-4] | + | 
21 | CNc1nc(-c2cnc3ccccc3c2)nc2c1CCN(C(=O)c1ccc(/C=C/c3ccc(C#CCN4CCN(C(=O)CCCCCC(=O)N[C@H](C(=O)N5C[C@H](O)C[C@H]5C(=O)NCc5ccc(-c6scnc6C)cc5)C(C)(C)C)CC4)cc3)cc1)C2 [Compound G2-5] | + | 
22 | CNc1nc(-c2cnc3ccccc3c2)nc2c1CCN(C(=O)c1ccc(/C=C/c3ccc(C#CCN4CCN(C(=O)CCCCCCC(=O)N[C@H](C(=O)N5C[C@H](O)C[C@H]5C(=O)NCc5ccc(-c6scnc6C)cc5)C(C)(C)C)CC4)cc3)cc1)C2 [Compound G2-6] | + | 
23 | CNc1nc(-c2cnc3ccccc3c2)nc2c1CCN(C(=O)c1ccc(/C=C/c3ccc(C#CCN4CCN(C(=O)CCCCCCCCC(=O)N[C@H](C(=O)N5C[C@H](O)C[C@H]5C(=O)N[C@@H](C)c5ccc(-c6scnc6C)cc5)C(C)(C)C)CC4)cc3)cc1)C2 [Compound G2-7] | + | 
24 | CNc1nc(-c2cnc3ccccc3c2)nc2c1CCN(C(=O)c1ccc(/C=C/c3ccc(C#CCN4CCN(CCCCC(=O)N[C@H](C(=O)N5C[C@H](O)C[C@H]5C(=O)N[C@@H](C)c5ccc(-c6scnc6C)cc5)C(C)(C)C)CC4)cc3)cc1)C2 [Compound G3-1] | + | 
